Experimental findings from paper PMC12408501, “A novel fluorescent probe, triphenylamine rhodamine-3-acetic acid (mRA) for the detection of Amyloid-β aggregates in Alzheimer's disease” (Frontiers in Neuroscience, 2025) are described below.

The assay has as its target T1, Amyloid-β (Aβ1-42) aggregates (Homo sapiens, UniProt P05067).
T1 construct: gene APP; Aβ1-42 (aggregates)
As to the kind of experiment: fluorescence enhancement titration (supported by far-UV CD and van't Hoff analysis). It counts as binding.

The structures appear in SMILES notation.

For orientation: Kd means the free concentration of one partner at which half of the binding sites on the other are occupied at equilibrium, for simple one-to-one binding.

T1 sequence (P05067 672-713): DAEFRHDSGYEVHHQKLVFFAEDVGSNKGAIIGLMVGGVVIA

Consider `O=C(O)CN1C(=O)/C(=C/c2ccc(N(c3ccccc3)c3ccccc3)cc2)SC1=S` [mRA, triphenylamine rhodamine-3-acetic acid], for which the dissociation constant Kd was determined as 0.341 ± 0.017 µM.
